Values of other authors in patent publication US7604185B2, “Generation of therapeutic microfoam” (BTG International Ltd., priority 2002, dated 2009).

Settings: in water at STP
For `O=C=O` [Carbon dioxide], the “Mole Fraction Solubility 10^−3” value is given as 61.5 10^−3.
For `[He]` [Helium], the “Mole Fraction Solubility 10^−3” value is given as 0.7 10^−3.
For `[N-]=[N+]=O` [Nitrous oxide], the “Mole Fraction Solubility 10^−3” value is given as 43.7 10^−3.
For `O=O` [Oxygen], the “Mole Fraction Solubility 10^−3” value is listed as 2.3 10^−3.
